One test concerns ckP2X7 T202W. In kind it is cell-based, chicken.
The test system of a further test is F 174 A mutant of hP2X3. Details: method as in PMID 24223907. The following applies: hP2X3 F174A; cited from earlier work.
For another test, the target named is T1, rP2X2 V119W/H120W (Rattus norvegicus, UniProt P49653, H120W/V119W).
T1 construct: expressed in transfected cells; host or cells: HEK293
T1 sequence (P49653 1-472 V119W/H120W): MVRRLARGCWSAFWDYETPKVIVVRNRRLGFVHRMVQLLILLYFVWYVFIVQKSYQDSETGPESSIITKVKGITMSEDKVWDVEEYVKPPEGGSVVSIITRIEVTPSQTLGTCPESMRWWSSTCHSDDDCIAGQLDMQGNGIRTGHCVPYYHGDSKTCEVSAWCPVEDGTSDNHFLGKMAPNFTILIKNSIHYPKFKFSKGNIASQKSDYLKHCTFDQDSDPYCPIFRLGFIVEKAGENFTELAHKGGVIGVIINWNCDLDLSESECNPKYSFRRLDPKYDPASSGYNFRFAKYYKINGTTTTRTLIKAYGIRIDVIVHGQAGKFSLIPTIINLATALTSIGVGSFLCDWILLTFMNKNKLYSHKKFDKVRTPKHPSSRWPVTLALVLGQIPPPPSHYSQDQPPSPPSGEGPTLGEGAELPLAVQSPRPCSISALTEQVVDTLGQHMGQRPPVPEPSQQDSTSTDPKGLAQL
In words: Conventional whole-cell patch recording of ATP-evoked currents, transfected HEK293 cells. In kind it is cell-based. The method, then: (§1) As we described previously, [41], [42], human embryonic kidney (HEK 293) cells were purchased from Shanghai Institutes for Biological Sciences and cultured in Dulbecco's Modified Eagle Medium supplemented with 10% fetal bovine serum (FBS), 1% penicillin-streptomycin and 1% GlutaMAX™ at 37 °C, 5% CO2 and 95% air in a humidified environment. Plasmids were transfected into cells using transfection agents containing two solutions (Solution A: 250 mM CaCl2 in pure water; Solution B (in mM): 1.5 Na2HPO4, 140 NaCl and 50 HEPES, pH adjusted to 6.96). After mixing 2.5–3 μg of the plasmid and solution A, the mixture was added dropwise to an equal volume of solution B, followed by stirring with a pipette tip. The mixture was left to stabilize at room temperature for 3–5 min and then added to the cell culture dish. After 6 h of transfection, the medium in the culture dish was replaced with fresh medium.
(§2) Nystatin (0.15 mg/mL) was diluted with a high potassium internal solution containing (in mM): 75 K2SO4, 55 KCl, 5 MgSO4, and 10 HEPES (pH 7.4). The ckP2X7 and rP2X2 receptor currents were recorded using conventional whole-cell patch configuration. At 24–48 h after transfection, HEK293 cells were recorded using an Axopatch 200B amplifier (Molecular Devices, USA) at room temperature (25 ± 2 °C), with holding a potential of − 60 mV. Current data were sampled at 10 kHz, filtered at 2 kHz, and analyzed using the PCLAMP 10 software (Molecular Devices, USA). HEK293 cells were bathed in standard extracellular solution (SS) containing (in mM): 150 NaCl, 5 KCl, 2 CaCl2, 1 MgCl2, 10 glucose, and 10 HEPES (pH 7.4, by Tris-base). For conventional whole-cell recordings, the pipette solution consisted of (in mM): 120 KCl, 30 NaCl, 0.5 CaCl2, 1 MgCl2, 5 EGTA, and 10 HEPES (pH 7.4, by Tris-base). ATP and drugs were dissolved in standard extracellular solution and administered with a Y-tube.
(§3) All electrophysiological recordings were analyzed using Clampfit 10.6 (Molecular Devices). Pooled data were expressed as mean and standard error of the mean (s.e.m.). Comparisons between multiple independent groups were performed using one-way ANOVA followed by Dunnett's tests. Comparisons between two groups were made using paired (before and after engineered disulfide bond cross-linking) or unpaired Student’s t tests, as appropriate.

In another test the target is T2, rP2X2 WT (Rattus norvegicus, UniProt P49653).
T2 construct: expressed in transfected cells; host or cells: HEK293
T2 sequence (P49653 1-472): T1 sequence (P49653 1-472 V119W/H120W) with W119V, W120H
The description is as above. In kind it is cell-based. The method, then:
as §1, §2, §3

The target in a further test is T3, rP2X2 K212A (Rattus norvegicus, UniProt P49653, K212A).
T3 construct: expressed in transfected cells; host or cells: HEK293
T3 sequence (P49653 1-472 K212A): T1 sequence (P49653 1-472 V119W/H120W) with W119V, W120H, K212A
Described as above. In kind it is cell-based. As for the experimental part: as §1, §2, §3

In another test the target is T4, rP2X3 WT (Rattus norvegicus, UniProt P49654).
T4 construct: EGFP (only implied by the anti-EGFP blot of rP2X3 plasmids); expressed in transfected cells; host or cells: HEK293
T4 sequence (P49654 1-397): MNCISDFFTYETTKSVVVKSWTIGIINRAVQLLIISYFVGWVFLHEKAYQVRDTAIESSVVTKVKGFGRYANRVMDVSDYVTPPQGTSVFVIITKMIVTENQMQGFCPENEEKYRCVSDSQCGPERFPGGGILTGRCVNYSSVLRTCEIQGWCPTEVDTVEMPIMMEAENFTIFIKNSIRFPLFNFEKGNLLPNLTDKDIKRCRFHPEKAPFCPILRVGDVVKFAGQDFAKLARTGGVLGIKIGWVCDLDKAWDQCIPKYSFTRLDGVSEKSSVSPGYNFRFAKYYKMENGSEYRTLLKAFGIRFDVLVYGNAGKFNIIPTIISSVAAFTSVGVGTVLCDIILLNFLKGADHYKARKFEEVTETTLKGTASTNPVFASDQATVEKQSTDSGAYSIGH
In words: Nystatin perforated patch recording of ATP-evoked currents, transfected HEK293 cells. It is filed as cell-based. The settings on record: Hill 1 fit, mean ± s.e.m. The method, then: As we described previously, [41], [42], human embryonic kidney (HEK 293) cells were purchased from Shanghai Institutes for Biological Sciences and cultured in Dulbecco's Modified Eagle Medium supplemented with 10% fetal bovine serum (FBS), 1% penicillin-streptomycin and 1% GlutaMAX™ at 37 °C, 5% CO2 and 95% air in a humidified environment. Plasmids were transfected into cells using transfection agents containing two solutions (Solution A: 250 mM CaCl2 in pure water; Solution B (in mM): 1.5 Na2HPO4, 140 NaCl and 50 HEPES, pH adjusted to 6.96). […]
Nystatin (0.15 mg/mL) was diluted with a high potassium internal solution containing (in mM): 75 K2SO4, 55 KCl, 5 MgSO4, and 10 HEPES (pH 7.4). The ckP2X7 and rP2X2 receptor currents were recorded using conventional whole-cell patch configuration. At 24–48 h after transfection, HEK293 cells were recorded using an Axopatch 200B amplifier (Molecular Devices, USA) at room temperature (25 ± 2 °C), with holding a potential of − 60 mV. Current data were sampled at 10 kHz, filtered at 2 kHz, and analyzed using the PCLAMP 10 software (Molecular Devices, USA). […]
All electrophysiological recordings were analyzed using Clampfit 10.6 (Molecular Devices). Pooled data were expressed as mean and standard error of the mean (s.e.m.). […]

Another test addresses T5, hP2X3 WT (Homo sapiens, UniProt P56373).
T5 construct: host or cells: HEK293
T5 sequence (P56373 1-397): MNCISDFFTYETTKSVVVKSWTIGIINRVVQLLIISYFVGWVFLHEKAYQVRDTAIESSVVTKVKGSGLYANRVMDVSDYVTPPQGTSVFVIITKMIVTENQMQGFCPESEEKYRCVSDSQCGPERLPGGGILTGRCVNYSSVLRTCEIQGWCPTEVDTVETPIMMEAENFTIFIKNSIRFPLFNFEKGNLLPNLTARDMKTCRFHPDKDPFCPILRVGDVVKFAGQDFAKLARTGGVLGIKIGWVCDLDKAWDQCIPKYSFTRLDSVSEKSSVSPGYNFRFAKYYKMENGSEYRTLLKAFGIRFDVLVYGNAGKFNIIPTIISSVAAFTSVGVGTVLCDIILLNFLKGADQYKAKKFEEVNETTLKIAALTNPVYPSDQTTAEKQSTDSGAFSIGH
Described as above. The following applies: Hill 1 fit. It is filed as cell-based.

In another test the target is T6, rP2X3 K201C/V274C (Rattus norvegicus, UniProt P49654, K201C/V274C).
T6 construct: EGFP (only implied by the anti-EGFP blot of rP2X3 plasmids); expressed in transfected cells; host or cells: HEK293
T6 sequence (P49654 1-397 K201C/V274C): T4 sequence (P49654 1-397) with K201C, V274C
The test is described as above. In kind it is cell-based. The settings on record: Hill 1 fit.

Another test addresses T7, hP2X3 K113A (Homo sapiens, UniProt P56373, K113A).
T7 construct: expressed in transfected cells; host or cells: HEK293
T7 sequence (P56373 1-397 K113A): T5 sequence (P56373 1-397) with K113A
Described as above. In kind it is cell-based.

A further test deals with T8, hP2X3 R204A (Homo sapiens, UniProt P56373, R204A).
T8 construct: expressed in transfected cells; host or cells: HEK293
T8 sequence (P56373 1-397 R204A): T5 sequence (P56373 1-397) with R204A
Described as above. In kind it is cell-based.

Structures are written as SMILES. Positions count from the first letter of the chain named.

These results are taken from PMC10762375 (Computational and Structural Biotechnology Journal, 2023).

As for `Nc1ncnc2c1ncn2[C@@H]1O[C@H](COP(=O)(O)OP(=O)(O)OP(=O)(O)O)[C@H]2OC3(O[C@H]21)C([N+](=O)[O-])=CC(=[N+]([O-])[O-])C=C3[N+](=O)[O-]` (stereo partly shown) [TNP-ATP, 2',3'-O-(2,4,6-trinitrophenyl)-ATP], the “enhancement of apparent affinity of TNP-ATP vs WT” value in the test with ckP2X7 T202W (1 mM ATP) is reported as “about 38 fold”. For the same molecule, in the test with F 174 A mutant of hP2X3, the “effect of mutation on inhibition by TNP-ATP” value is reported as “does not alter the inhibition”. Further, the IC50 against rP2X2 V119W/H120W was 24.9 ± 5 µM; on rP2X2 WT, 3.14 ± 0.95 µM; at rP2X2 K212A, 15.8 ± 2 µM. In addition, the “reduction of sensitivity to TNP-ATP inhibition vs WT” value at rP2X2 V119W/H120W (rP2X2 V119W/H120W vs rP2X2 WT) is roughly 8 fold. The “reduction of potency of inhibition by TNP-ATP vs WT” value on rP2X2 K212A (rP2X2 K212A vs rP2X2 WT) is recorded as roughly 5 fold.
For the molecule `Nc1ncnc2c1ncn2[C@@H]1O[C@H](COP(=O)(O)OP(=O)(O)OP(=O)(O)O)[C@@H](O)[C@H]1O` [ATP], the EC50 at rP2X3 WT amounted to 0.832 ± 0.143 µM; on hP2X3 WT, 0.767 ± 0.099 µM; on rP2X3 K201C/V274C, 12.9 ± 2.7 µM; on hP2X3 K113A it was 0.872 ± 0.232 µM; on rP2X2 V119W/H120W (rP2X2 V119W/H120W) it was 221 ± 36 µM; on rP2X2 WT (rP2X2 WT), 5.39 ± 0.11 µM. The EC50 at rP2X2 K212A (rP2X2 K212A) amounted to 9.83 ± 0.34 µM; at hP2X3 R204A, 1.22 ± 0.22 µM. Besides, the “reduction in affinity to ATP vs WT” value in the test on ckP2X7 T202W is given as “approximately 60 fold”.
